The values that follow are results of earlier work, collected in patent US20220175673A1, “SURGICAL DEVICE” (Saint Anthony Biomedical, LLC, priority 2017, published 2022).

This data set relates to Bacteroides, Propionibacterium, Clostridium deficile, Selenomonas. The conditions noted are these: some strains.

Regarding `[H]/N=C(\N/C(=N/[H])NCCCCCCNC(=N)NC(=N)Nc1ccc(Cl)cc1)Nc1ccc(Cl)cc1` [Chlorhexidine, chlorhexidine], the activity entry is “active against some strains”.
